From patent US20240002365A1, “PYRIDAZINE AND 1,2,4-TRIAZINE DERIVATIVES AS FGFR KINASE INHIBITORS” (BETA PHARMA, INC., priority 2020, published 2024)
Where two headings read alike, the source gives them in different places.

Assay: Pharmacokinetics assay in male CD-1 mice (plasma, LC-MS/MS, non-compartmental analysis)
Type: in vivo
Conditions: for concentration at 0.083 h: 299 s; for concentration at 0.5 h: 0.500 h; for MRT inf: read-out: MRT0-inf; for MRT last: read-out: MRT0-last
Method: Pharmacokinetics Assay. A pharmacokinetics assay of Example 1 was performed by WuXi AppTec Inc., 6 Cedarbrook Drive, Cranbury, NJ 08512 USA. This study was conducted in 6 to 8-week-old male CD-1 mice (Hilltop Laboratories). Animals were group housed during acclimation and throughout the study. The animal room environment was controlled according to facility operation (temperature: 20 to 26° C.; relative humidity: 30 to 70%; lighting: 12 hour light/dark cycle). Temperature, relative humidity, and lighting were monitored by PointView Environmental Monitoring System. Animals were fed certified pellet diet (Certified Rodent Diet #5002, LabDiet). The diet lot number and specifications were recorded in study notebook and archived at WuXi AppTec. Water (reverse osmosis) was provided to the animals ad libitum. The animals were fasted overnight and food was returned 4 hours post-dose.
An appropriate amount of Example compound 1 above (N^1-(3,5-Dimethoxyphenyl)-N^2-isopropyl-N^1-(3-(1-methyl-1H-pyrazol-4-yl)cinnolin-6-yl)ethane-1,2-diamine) was accurately weighed and mixed with an appropriate volume of 20% hydroxypropyl-(3-cyclodextrin; 80% H2O (w/v) to give either a clear solution or uniform suspension (PO only). Blood samples of about 30-40 μL were collected from peripheral veins at pre-defined time points. into pre-chilled micro-tubes containing K2EDTA as anti-coagulant and kept on ice until centrifugation. The blood samples were centrifuged at 4° C., 3000g for 15 min within half an hour of collection. Plasma was collected into 96-well plate(s), quickly frozen on dry ice and stored at −70±10° C. until LC-MS/MS analysis. The LC-MS/MS analytical method is described as follows:
The pharmacokinetics of Example Compound 1 were analyzed using the Phoenix WinNonlin software (version 6.3) based on the non-compartmental analysis model and the results are shown below in FIGS. 1 and 2 and in Tables 1 and 2. M7, M8, M9, etc. refer to particular mouse subjects used in the study.

[1] = male, CD-1, mouse, plasma, iv, 1 mg/kg, IV 1.00 mg/kg, individual mice M7-M9
[2] = male, CD-1, mouse, plasma, iv, 1 mg/kg, IV 1.00 mg/kg, mean
[3] = male, CD-1, mouse, plasma, po, 10 mg/kg, PO 10.0 mg/kg, mean

COc1cc(OC)cc(N(CCNC(C)C)c2ccc3nnc(-c4cnn(C)c4)cc3c2)c1 [Example 1, N^1-(3,5-Dimethoxyphenyl)-N^2-isopropyl-N^1-(3-(1-methyl-1H-pyrazol-4-yl)cinnolin-6-yl)ethane-1,2-diamine]
AUCExtra (PO 10.0 mg/kg, mouse, mean): 13.6% | AUMCExtra (PO 10.0 mg/kg, mouse, mean): 38.2% | Tlast (PO 10.0 mg/kg, mouse, mean): 18.7 h | concentration at 0.083 h [1]: 341 ng/mL | concentration at 0.083 h [2]: 360 ng/mL | concentration at 0.25 h (male, CD-1, mouse, plasma, iv, 1 mg/kg, IV 1.00 mg/kg, 0.250 h, mean): 211 ng/mL | concentration at 0.5 h [2]: 125 ng/mL | concentration at 1 h [2]: 57.9 ng/mL | concentration at 2 h [2]: 14 ng/mL | concentration at 4 h [1]: 3.72 ng/mL | concentration at 4 h [2]: 3.51 ng/mL | concentration at 8 h [1]: 1.65 ng/mL | concentration at 8 h [2]: 1.6 ng/mL | concentration at 24 h [1]: 1.36 ng/mL | concentration at 24 h [2]: 1.79 ng/mL | AUC(0-t) [1]: 226 ng·h/mL | clearance [1]: 73 mL/min/kg | AUC0-inf (male, CD-1, mouse, plasma, iv, 1 mg/kg, IV 1.00 mg/kg, individual mice M7-M9, read-out: AUC0-inf): 228 ng·h/mL | C0 (male, CD-1, mouse, plasma, iv, 1 mg/kg, IV 1.00 mg/kg, individual mice M7-M9, read-out: C0): 448 ng/mL | AUC(0-t) [2]: 239 ng·h/mL | clearance [2]: 70.8 mL/min/kg | half-life [2]: 1.67 h | AUC0-inf (male, CD-1, mouse, plasma, iv, 1 mg/kg, IV 1.00 mg/kg, mean, read-out: AUC0-inf): 243 ng·h/mL | C0 (male, CD-1, mouse, plasma, iv, 1 mg/kg, IV 1.00 mg/kg, mean, read-out: C0): 472 ng/mL | MRT inf [2]: 2.75 h | MRT last [2]: 2.28 h | Vd (male, CD-1, mouse, plasma, iv, 1 mg/kg, IV 1.00 mg/kg, mean, read-out: Vdss): 12.8 L/kg | concentration at 0.167 h (male, CD-1, mouse, plasma, po, 10 mg/kg, PO 10.0 mg/kg, 0.167 h, mean): 79.1 ng/mL | concentration at 0.5 h [3]: 147 ng/mL | concentration at 1 h [3]: 89.8 ng/mL | concentration at 2 h [3]: 44.4 ng/mL | concentration at 4 h [3]: 15 ng/mL | concentration at 6 h (male, CD-1, mouse, plasma, po, 10 mg/kg, PO 10.0 mg/kg, 6.00 h, mean): 10.7 ng/mL | concentration at 8 h [3]: 6.6 ng/mL | concentration at 24 h [3]: 4.53 ng/mL | AUC(0-t) [3]: 330 ng·h/mL | half-life [3]: 8.05 h | AUC0-inf (male, CD-1, mouse, plasma, po, 10 mg/kg, PO 10.0 mg/kg, mean, read-out: AUC0-inf): 389 ng·h/mL | Cmax (male, CD-1, mouse, plasma, po, 10 mg/kg, PO 10.0 mg/kg, mean, read-out: Cmax): 147 ng/mL | MRT inf [3]: 9.81 h | MRT last [3]: 5.13 h | bioavailability (male, CD-1, plasma, PO 10.0 mg/kg vs IV 1.00 mg/kg, mouse, calculated from AUC): 13.8% | Tmax (male, CD-1, plasma, PO 10.0 mg/kg, mouse, individual mice M10-M12): 0.5 h
